Source: ChEMBL document CHEMBL4342498, “Design and Discovery of an Orally Efficacious Spiroindolinone-Based Tankyrase Inhibitor for the Treatment of Colon Cancer” (J Med Chem, 2020)
≈ marks a conversion by molar mass, not a printed value.

Key:
[1] = target: T1, Poly [ADP-ribose] polymerase tankyrase-2 (Homo sapiens, UniProt Q9H2K2); assay: Inhibition of recombinant human N-terminal TEV cleavage site-fused/FLAG-poly his-tagged TNKS2 ARC5-SAM-PARP domain (613 to 1166 residues) expressed in Escherichia coli assessed as reduction in auto-PARylation preincubated for 10 mins followed by biotinylated-NAD+ addition and measured after 45 mins by ELISA
T1 sequence (Q9H2K2 whole entry): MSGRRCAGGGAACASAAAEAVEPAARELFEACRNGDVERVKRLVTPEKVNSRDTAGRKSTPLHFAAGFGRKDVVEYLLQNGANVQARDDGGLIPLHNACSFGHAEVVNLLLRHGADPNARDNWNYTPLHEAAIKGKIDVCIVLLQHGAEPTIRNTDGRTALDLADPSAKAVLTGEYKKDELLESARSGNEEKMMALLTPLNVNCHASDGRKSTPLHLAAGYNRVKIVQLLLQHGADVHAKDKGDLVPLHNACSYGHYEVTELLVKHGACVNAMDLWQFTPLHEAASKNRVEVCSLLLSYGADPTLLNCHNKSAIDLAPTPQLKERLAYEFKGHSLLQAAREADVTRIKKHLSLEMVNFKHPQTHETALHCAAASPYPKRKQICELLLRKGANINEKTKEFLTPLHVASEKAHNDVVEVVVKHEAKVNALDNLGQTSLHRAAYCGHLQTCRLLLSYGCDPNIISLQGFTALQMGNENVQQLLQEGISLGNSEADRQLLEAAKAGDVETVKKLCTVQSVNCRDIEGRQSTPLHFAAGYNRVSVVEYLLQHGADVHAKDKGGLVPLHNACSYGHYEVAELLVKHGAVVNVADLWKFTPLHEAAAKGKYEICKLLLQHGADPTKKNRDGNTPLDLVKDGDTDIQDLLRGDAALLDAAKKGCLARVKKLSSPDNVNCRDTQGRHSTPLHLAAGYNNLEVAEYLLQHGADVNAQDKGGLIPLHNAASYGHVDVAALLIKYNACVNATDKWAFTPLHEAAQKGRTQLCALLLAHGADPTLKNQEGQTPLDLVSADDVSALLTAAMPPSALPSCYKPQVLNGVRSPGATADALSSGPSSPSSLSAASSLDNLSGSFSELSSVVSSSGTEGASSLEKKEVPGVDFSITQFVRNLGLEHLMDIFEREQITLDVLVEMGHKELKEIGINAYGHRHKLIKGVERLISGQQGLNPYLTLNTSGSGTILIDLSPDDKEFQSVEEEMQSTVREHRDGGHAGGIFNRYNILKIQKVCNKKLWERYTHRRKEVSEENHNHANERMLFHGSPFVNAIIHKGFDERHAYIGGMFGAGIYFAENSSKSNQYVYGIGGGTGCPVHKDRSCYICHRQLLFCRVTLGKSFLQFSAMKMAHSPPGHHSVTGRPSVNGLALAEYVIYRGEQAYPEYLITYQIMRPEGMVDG

[2] = tested on: COLO 320DM; assay: Antiproliferative activity against human COLO320DM cells assessed as inhibition of cell growth measured after 4 days by CellTiter-Glo assay; format: functional; details: 96 h
[3] = Stability in mouse liver microsomes assessed as parent compound remaining at 1 uM measured after 60 mins in presence of NADPH by LC-MS/MS analysis; format: ADME, Microsome; details: read-out: Stability
[4] = Stability in human liver microsomes assessed as parent compound remaining at 1 uM measured after 60 mins in presence of NADPH by LC-MS/MS analysis; format: ADME, Microsome; details: read-out: Stability
[5] = tested on: MDR1; assay: Efflux ratio of permeability across basolateral to apical side over apical to basolateral side in MDCK2-MDR1 cells; format: ADME, cell-based, Canis lupus familiaris; details: dog, MDCK-MDR1
[6] = Efflux ratio of permeability across basolateral to apical side over apical to basolateral side in MDCK2 cells; format: ADME, cell-based, Canis lupus familiaris, MDCK-II; details: dog, mdck
[7] = Net efflux ratio of permeability across basolateral to apical side over apical to basolateral side in MDCK2-MDR1 cells to MDCK2 cells; format: ADME, cell-based, Canis lupus familiaris; details: dog, mdck
[8] = target: T2, Poly [ADP-ribose] polymerase tankyrase-1 (Homo sapiens, UniProt O95271)
T2 sequence (O95271 whole entry): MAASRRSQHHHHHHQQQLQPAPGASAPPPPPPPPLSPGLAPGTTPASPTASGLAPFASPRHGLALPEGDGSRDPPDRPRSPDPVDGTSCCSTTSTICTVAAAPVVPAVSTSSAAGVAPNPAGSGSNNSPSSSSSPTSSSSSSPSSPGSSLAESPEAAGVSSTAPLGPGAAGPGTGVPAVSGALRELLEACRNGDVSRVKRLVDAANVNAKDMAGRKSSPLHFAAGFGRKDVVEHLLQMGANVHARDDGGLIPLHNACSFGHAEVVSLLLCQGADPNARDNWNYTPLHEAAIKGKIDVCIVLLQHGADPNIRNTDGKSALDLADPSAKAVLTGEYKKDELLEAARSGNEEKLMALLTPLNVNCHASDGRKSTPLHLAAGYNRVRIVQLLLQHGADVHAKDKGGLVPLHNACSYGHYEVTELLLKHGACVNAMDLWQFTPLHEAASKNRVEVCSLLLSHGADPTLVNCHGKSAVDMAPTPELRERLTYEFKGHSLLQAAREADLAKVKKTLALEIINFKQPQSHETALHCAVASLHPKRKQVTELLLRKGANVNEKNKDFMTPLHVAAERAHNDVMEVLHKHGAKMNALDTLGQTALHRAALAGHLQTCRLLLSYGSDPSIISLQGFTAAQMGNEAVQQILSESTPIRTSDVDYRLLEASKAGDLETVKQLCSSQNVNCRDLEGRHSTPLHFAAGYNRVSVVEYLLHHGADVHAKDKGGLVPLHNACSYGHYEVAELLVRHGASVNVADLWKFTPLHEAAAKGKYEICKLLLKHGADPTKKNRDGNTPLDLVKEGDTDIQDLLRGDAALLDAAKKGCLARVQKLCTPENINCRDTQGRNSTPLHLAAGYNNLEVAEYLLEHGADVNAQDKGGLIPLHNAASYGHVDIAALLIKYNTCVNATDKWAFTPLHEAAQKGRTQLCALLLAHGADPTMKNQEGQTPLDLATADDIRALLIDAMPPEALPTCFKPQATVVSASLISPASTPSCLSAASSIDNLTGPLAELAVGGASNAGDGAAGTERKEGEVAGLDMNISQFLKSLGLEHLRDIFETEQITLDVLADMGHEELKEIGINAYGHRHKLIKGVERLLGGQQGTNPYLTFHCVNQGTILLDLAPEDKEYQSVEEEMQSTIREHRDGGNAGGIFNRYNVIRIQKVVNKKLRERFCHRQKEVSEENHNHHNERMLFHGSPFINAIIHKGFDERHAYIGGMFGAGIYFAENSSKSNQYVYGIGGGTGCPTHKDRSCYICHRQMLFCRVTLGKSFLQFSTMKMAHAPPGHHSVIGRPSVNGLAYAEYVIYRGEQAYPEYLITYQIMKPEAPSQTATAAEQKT
Description: Inhibition of recombinant human N-terminal TEV cleavage site-fused/FLAG-poly his-tagged TNKS SAM-PARP domain (1024 to 1327 residues) expressed in Escherichia coli assessed as reduction in auto-PARylation preincubated for 10 mins followed by biotinylated-NAD+ addition and measured after 45 mins by ELISA

[9] = target: T3, Tankyrase 1/2 (Homo sapiens, UniProt Q9H2K2+O95271); details: hek293
T3 sequence (Q9H2K2 whole entry): T1 sequence (Q9H2K2 whole entry)
T3 sequence (O95271 whole entry): T2 sequence (O95271 whole entry)
Description: Inhibition of TNKS/TNKS2 (unknown origin) expressed in HEK293 cells assessed as reduction in Wnt-signaling measured after 24 hrs by TCF-luciferase reporter gene assay

[10] = target: T3, Tankyrase 1/2
Description: Inhibition of TNKS/TNKS2 (unknown origin) expressed in human DLD1 cells assessed as reduction in Wnt-signaling measured after 24 hrs by TCF-luciferase reporter gene assay

[11] = physchem; details: phosphate buffered saline, pH 7.4

Row | SMILES | IC50 [1] [nM] | GI50 [2] [nM] | remaining at 1 h, 1 µM [3] [%] | remaining at 1 h, 1 µM [4] [%] | efflux ratio [5] | efflux ratio [6] | Ratio [7] | IC50 [8] [nM] | IC50 [9] [nM] | IC50 [10] [nM] | solubility at 1 h, 200 µM [11] [µg/mL]
1 | CN1CCC(Oc2cc(F)c3c(c2)N(C)C(=O)C32CCN(c3nc4c(c(=O)[nH]3)CCCN4C)CC2)CC1 | 21.2 | 660 | 60.3 | 22.4 | 11.7 | 4.6 | 2.5 | 6.1 | 0.1 | 2.7 | 102 (≈ 201 µM)
2 | CN1CCCc2c1nc(N1CCC3(CC1)C(=O)N(CC(=O)O)c1cc(F)cc(F)c13)[nH]c2=O | 29.8 | 12600 | 100 | 100 | 0.5 | 0.4 | 1.3 | 28.5 | 221 | 1185 | 92.1 (≈ 200 µM)
3 | CN1CCCc2c1nc(N1CCC3(CC1)C(=O)N(CC1COC1)c1cc(F)cc(F)c13)[nH]c2=O | 12.2 | 200 | 0.3 | 0 | 8.4 | 1.2 | 7 | 7.8 | 0.3 | 7.2 | 9.3 (≈ 19.7 µM)
4 | CN1CCCc2c1nc(N1CCC3(CC1)C(=O)N(CC(F)(F)F)c1cc(F)cc(F)c13)[nH]c2=O | 32.4 | 70 | 1 | 8 | 2 | 0.7 | 2.9 | 16.2 | 0.2 | 2.4 | 1.3 (≈ 2.69 µM)
5 | COCCN1C(=O)C2(CCN(c3nc4c(c(=O)[nH]3)CCCN4C)CC2)c2c(F)cc(F)cc21 | 11.7 | 50 | 0.1 | 1.8 | 4.8 | 1.3 | 3.7 | 10.3 | 0.3 | 3 | 6.3 (≈ 13.7 µM)
6 | CN1CCCc2c1nc(N1CCC3(CC1)C(=O)N(C)c1cc(N4CCNCC4)cc(F)c13)[nH]c2=O | 23.4 | 1120 | 63.7 | 28.6 | 9.1 | 6.8 | 1.3 | 12.8 | 3.2 | 29.1 | 97.3 (≈ 202 µM)
7 | CN1CCCc2c1nc(N1CCC3(CC1)C(=O)N(C)c1cc(OCCN4CCCCC4)cc(F)c13)[nH]c2=O | 33.3 | 1090 | 56 | 18.5 | 6.1 | 3.2 | 1.9 | 12 | 2.5 | 5 | 101 (≈ 192 µM)
8 | CN1CCCc2c1nc(N1CCC3(CC1)C(=O)N(CC#N)c1cc(F)cc(F)c13)[nH]c2=O | 6.1 | 440 | 1.2 | 6.1 | 11.7 | 2.3 | 5.1 | 3.7 | 0.2 | 1.6 | 50.5 (≈ 115 µM)

The next lines start with the values.

Row | IC50 [1] [nM] | GI50 [2] [nM] | remaining at 1 h, 1 µM [3] [%] | remaining at 1 h, 1 µM [4] [%] | efflux ratio [5] | efflux ratio [6] | Ratio [7] | IC50 [8] [nM] | IC50 [9] [nM] | IC50 [10] [nM] | solubility at 1 h, 200 µM [11] [µg/mL] | SMILES
9 | 6.4 | 50 | 13.7 | 1.8 | 7.5 | 2.1 | 3.6 | 4.8 | 0.1 | 1.3 | 11.4 (≈ 24.2 µM) | COCCOc1cc(F)c2c(c1)N(C)C(=O)C21CCN(c2nc3c(c(=O)[nH]2)CCCN3C)CC1
10 | 4.7 | 160 | 0.7 | 19.8 | 14.9 | 6.2 | 2.4 | 3.5 | 0.8 | 2.3 | 75.1 (≈ 164 µM) | CN1CCCc2c1nc(N1CCC3(CC1)C(=O)N(C)c1cc(OCCO)cc(F)c13)[nH]c2=O
11 | 10.7 | 220 | 0 | 0.3 | 3.1 | 1.1 | 2.8 | 7.9 | 3.9 | 14.4 | 16 (≈ 38.5 µM) | CN1CCCc2c1nc(N1CCC3(CC1)C(=O)N(C)c1cc(F)cc(F)c13)[nH]c2=O
12 | 18.7 | 740 | 83.5 | 56.5 | 86.4 | 13.1 | 6.6 | 7.9 | 1.2 | 6.3 | 188 (≈ 348 µM) | CN1CCN(CCOc2cc(F)c3c(c2)N(C)C(=O)C32CCN(c3nc4c(c(=O)[nH]3)CCCN4C)CC2)CC1
13 | 17.1 | 330 | 41.4 | 1.5 | 29.1 | 5.1 | 5.7 | 9.2 | 0.3 | 2.8 | 101 (≈ 192 µM) | CN1CCCc2c1nc(N1CCC3(CC1)C(=O)N(C)c1cc(OCCN4CCOCC4)cc(F)c13)[nH]c2=O
